Source: PubChem BioAssay (NCI)
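Cells were grown in 96-well plates and exposed to each compound for 48 hours at five concentrations; endpoints were interpolated linearly between bracketing concentrations, or set to the highest concentration if not reached. GI50: concentration for 50% inhibition of growth. Definition used: TGI = concentration required for complete inhibition of growth.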

Columns and labels:
Assay in all cases: NCI anticancer screen, dose series, 48 h
PC-3 prostate = tested on: PC-3 prostate
RXF 393 renal = tested on: RXF 393 renal
T-47D breast = tested on: T-47D breast
SK-MEL-28 melanoma = tested on: SK-MEL-28 melanoma
IGROV1 ovarian = tested on: IGROV1 ovarian
HCC-2998 colon = tested on: HCC-2998 colon
MCF7 breast = tested on: MCF7 breast
A549 NSCLC = tested on: A549 NSCLC
SR leukemia = tested on: SR leukemia
MALME-3M melanoma = tested on: MALME-3M melanoma
NCI-H23 lung = tested on: NCI-H23 lung
SK-MEL-2 melanoma = tested on: SK-MEL-2 melanoma
HCT-15 colon = tested on: HCT-15 colon
SF-295 CNS = tested on: SF-295 CNS
DU-145 prostate = tested on: DU-145 prostate
HOP-92 NSCLC = tested on: HOP-92 NSCLC
UO-31 renal = tested on: UO-31 renal
OVCAR-8 ovarian = tested on: OVCAR-8 ovarian
SNB-19 CNS = tested on: SNB-19 CNS
UACC-257 melanoma = tested on: UACC-257 melanoma
ACHN renal = tested on: ACHN renal
OVCAR-4 ovarian = tested on: OVCAR-4 ovarian
LOX IMVI melanoma = tested on: LOX IMVI melanoma
CAKI-1 renal = tested on: CAKI-1 renal
KM12 colon = tested on: KM12 colon
MDA-MB-231 breast = tested on: MDA-MB-231 breast
U251 CNS = tested on: U251 CNS
SW-620 colon = tested on: SW-620 colon
SK-OV-3 ovarian = tested on: SK-OV-3 ovarian
NCI/ADR-RES ovarian = tested on: NCI/ADR-RES ovarian
BT-549 breast = tested on: BT-549 breast
UACC-62 melanoma = tested on: UACC-62 melanoma
OVCAR-3 ovarian = tested on: OVCAR-3 ovarian
HT29 colon = tested on: HT29 colon
NCI-H226 lung = tested on: NCI-H226 lung
HS 578T breast = tested on: HS 578T breast
SNB-75 CNS = tested on: SNB-75 CNS
NCI-H522 lung = tested on: NCI-H522 lung
SK-MEL-5 melanoma = tested on: SK-MEL-5 melanoma
786-0 renal = tested on: 786-0 renal
NCI-H460 lung = tested on: NCI-H460 lung
SF-539 CNS = tested on: SF-539 CNS
RPMI-8226 leukemia = tested on: RPMI-8226 leukemia
M14 melanoma = tested on: M14 melanoma
SF-268 CNS = tested on: SF-268 CNS
HOP-62 NSCLC = tested on: HOP-62 NSCLC
MOLT-4 leukemia = tested on: MOLT-4 leukemia
EKVX NSCLC = tested on: EKVX NSCLC
MDA-MB-435 = tested on: MDA-MB-435
SN12C renal = tested on: SN12C renal
K-562 leukemia = tested on: K-562 leukemia
CCRF-CEM leukemia = tested on: CCRF-CEM leukemia
TK-10 renal = tested on: TK-10 renal
COLO 205 colon = tested on: COLO 205 colon
OVCAR-5 ovarian = tested on: OVCAR-5 ovarian
HCT-116 colon = tested on: HCT-116 colon
A498 renal = tested on: A498 renal
HL-60(TB) leukemia = tested on: HL-60(TB) leukemia

## COc1ccc(OC)c(Nc2nc3ccccc3c3c2-c2ccc(OC)cc2C3=O)c1
PC-3 prostate
  GI50: > 100 µM
  TGI: > 100 µM
RXF 393 renal
  GI50: > 100 µM
  TGI: > 100 µM
T-47D breast
  GI50: > 100 µM
  TGI: > 100 µM
SK-MEL-28 melanoma
  GI50: > 100 µM
  TGI: > 100 µM
IGROV1 ovarian
  GI50: > 100 µM
  TGI: > 100 µM
HCC-2998 colon
  GI50: > 100 µM
  TGI: > 100 µM
MCF7 breast
  GI50: > 100 µM
  TGI: > 100 µM
A549 NSCLC
  GI50: > 100 µM
  TGI: > 100 µM
SR leukemia
  GI50: 40.7 µM
  TGI: > 100 µM
MALME-3M melanoma
  GI50: > 100 µM
  TGI: > 100 µM
NCI-H23 lung
  GI50: > 100 µM
  TGI: > 100 µM
SK-MEL-2 melanoma
  GI50: > 100 µM
  TGI: > 100 µM
HCT-15 colon
  GI50: > 100 µM
  TGI: > 100 µM
SF-295 CNS
  GI50: > 100 µM
  TGI: > 100 µM
DU-145 prostate
  GI50: > 100 µM
  TGI: > 100 µM
HOP-92 NSCLC
  GI50: > 100 µM
  TGI: > 100 µM
UO-31 renal
  GI50: > 100 µM
  TGI: > 100 µM
OVCAR-8 ovarian
  GI50: > 100 µM
  TGI: > 100 µM
SNB-19 CNS
  GI50: > 100 µM
  TGI: > 100 µM
UACC-257 melanoma
  GI50: > 100 µM
  TGI: > 100 µM
ACHN renal
  GI50: > 100 µM
  TGI: > 100 µM
OVCAR-4 ovarian
  GI50: > 100 µM
  TGI: > 100 µM
LOX IMVI melanoma
  GI50: > 100 µM
  TGI: > 100 µM
CAKI-1 renal
  GI50: > 100 µM
  TGI: > 100 µM
KM12 colon
  GI50: > 100 µM
  TGI: > 100 µM
MDA-MB-231 breast
  GI50: > 100 µM
  TGI: > 100 µM
U251 CNS
  GI50: > 100 µM
  TGI: > 100 µM
SW-620 colon
  GI50: > 100 µM
  TGI: > 100 µM
SK-OV-3 ovarian
  GI50: > 100 µM
  TGI: > 100 µM
NCI/ADR-RES ovarian
  GI50: > 100 µM
  TGI: > 100 µM
BT-549 breast
  GI50: > 100 µM
  TGI: > 100 µM
UACC-62 melanoma
  GI50: > 100 µM
  TGI: > 100 µM
OVCAR-3 ovarian
  GI50: > 100 µM
  TGI: > 100 µM
HT29 colon
  GI50: > 100 µM
  TGI: > 100 µM
NCI-H226 lung
  GI50: > 100 µM
  TGI: > 100 µM
HS 578T breast
  GI50: > 100 µM
  TGI: > 100 µM
SNB-75 CNS
  GI50: > 100 µM
  TGI: > 100 µM
NCI-H522 lung
  GI50: > 100 µM
  TGI: > 100 µM
SK-MEL-5 melanoma
  GI50: > 100 µM
  TGI: > 100 µM
786-0 renal
  GI50: > 100 µM
  TGI: > 100 µM
NCI-H460 lung
  GI50: > 100 µM
  TGI: > 100 µM
SF-539 CNS
  GI50: > 100 µM
  TGI: > 100 µM
RPMI-8226 leukemia
  GI50: > 100 µM
  TGI: > 100 µM
M14 melanoma
  GI50: > 100 µM
  TGI: > 100 µM
SF-268 CNS
  GI50: > 100 µM
  TGI: > 100 µM
HOP-62 NSCLC
  GI50: > 100 µM
  TGI: > 100 µM
MOLT-4 leukemia
  GI50: > 100 µM
  TGI: > 100 µM
EKVX NSCLC
  GI50: > 100 µM
  TGI: > 100 µM
MDA-MB-435
  GI50: > 100 µM
  TGI: > 100 µM
SN12C renal
  GI50: > 100 µM
  TGI: > 100 µM
K-562 leukemia
  GI50: > 100 µM
  TGI: > 100 µM
CCRF-CEM leukemia
  GI50: > 100 µM
  TGI: > 100 µM
TK-10 renal
  GI50: > 100 µM
  TGI: > 100 µM
COLO 205 colon
  GI50: > 100 µM
  TGI: > 100 µM
OVCAR-5 ovarian
  GI50: > 100 µM
  TGI: > 100 µM
HCT-116 colon
  GI50: > 100 µM
  TGI: > 100 µM
A498 renal
  GI50: > 100 µM
  TGI: > 100 µM
HL-60(TB) leukemia
  GI50: > 100 µM
  TGI: > 100 µM

## O=C(N/N=C\c1cc(Cl)ccc1O)c1ccncc1
PC-3 prostate
  GI50: 3.69 µM
  TGI: > 100 µM
RXF 393 renal
  GI50: 2.43 µM
  TGI: > 100 µM
T-47D breast
  GI50: 2.1 µM
  TGI: > 100 µM
SK-MEL-28 melanoma
  GI50: 3.05 µM
  TGI: > 100 µM
IGROV1 ovarian
  GI50: 6.16 µM
  TGI: > 100 µM
HCC-2998 colon
  GI50: 3.03 µM
  TGI: > 100 µM
MCF7 breast
  GI50: 2.05 µM
  TGI: > 100 µM
A549 NSCLC
  GI50: 12.9 µM
  TGI: > 100 µM
SR leukemia
  GI50: 2.85 µM
  TGI: > 100 µM
MALME-3M melanoma
  GI50: 14.6 µM
  TGI: > 100 µM
NCI-H23 lung
  GI50: 4.01 µM
  TGI: > 100 µM
SK-MEL-2 melanoma
  GI50: 19.5 µM
  TGI: > 100 µM
HCT-15 colon
  GI50: 0.576 µM
  TGI: > 100 µM
SF-295 CNS
  GI50: 5.29 µM
  TGI: > 100 µM
DU-145 prostate
  GI50: 4.63 µM
  TGI: > 100 µM
HOP-92 NSCLC
  GI50: 3.47 µM
  TGI: 61.3 µM
UO-31 renal
  GI50: 2.18 µM
  TGI: > 100 µM
OVCAR-8 ovarian
  GI50: 3.39 µM
  TGI: > 100 µM
SNB-19 CNS
  GI50: 5.95 µM
  TGI: > 100 µM
UACC-257 melanoma
  GI50: 4.16 µM
  TGI: > 100 µM
ACHN renal
  GI50: 1.91 µM
  TGI: > 100 µM
OVCAR-4 ovarian
  GI50: 0.967 µM
  TGI: 73.5 µM
LOX IMVI melanoma
  GI50: 1.56 µM
  TGI: > 100 µM
CAKI-1 renal
  GI50: 1.65 µM
  TGI: > 100 µM
KM12 colon
  GI50: 4.61 µM
  TGI: > 100 µM
MDA-MB-231 breast
  GI50: 3.67 µM
  TGI: > 100 µM
U251 CNS
  GI50: 1.86 µM
  TGI: > 100 µM
SW-620 colon
  GI50: 3.42 µM
  TGI: > 100 µM
SK-OV-3 ovarian
  GI50: 5.39 µM
  TGI: > 100 µM
NCI/ADR-RES ovarian
  GI50: 2.01 µM
  TGI: > 100 µM
BT-549 breast
  GI50: 9.18 µM
  TGI: > 100 µM
UACC-62 melanoma
  GI50: 1.48 µM
  TGI: 13.7 µM
OVCAR-3 ovarian
  GI50: 0.617 µM
  TGI: > 100 µM
HT29 colon
  GI50: 5.9 µM
  TGI: > 100 µM
NCI-H226 lung
  GI50: 2.61 µM
  TGI: 59 µM
HS 578T breast
  GI50: 26 µM
  TGI: > 100 µM
SNB-75 CNS
  GI50: 9.29 µM
  TGI: > 100 µM
NCI-H522 lung
  GI50: 2.69 µM
  TGI: 22.4 µM
SK-MEL-5 melanoma
  GI50: 1.96 µM
  TGI: 19 µM
786-0 renal
  GI50: 2.6 µM
  TGI: 32.2 µM
NCI-H460 lung
  GI50: 1.46 µM
  TGI: > 100 µM
SF-539 CNS
  GI50: 3.97 µM
  TGI: > 100 µM
RPMI-8226 leukemia
  GI50: 8.85 µM
  TGI: > 100 µM
M14 melanoma
  GI50: 3.05 µM
  TGI: 23.4 µM
SF-268 CNS
  GI50: 2.69 µM
  TGI: > 100 µM
HOP-62 NSCLC
  GI50: 2.97 µM
  TGI: > 100 µM
MOLT-4 leukemia
  GI50: 2.91 µM
  TGI: > 100 µM
EKVX NSCLC
  GI50: 27.3 µM
  TGI: > 100 µM
MDA-MB-435
  GI50: 11.7 µM
  TGI: > 100 µM
SN12C renal
  GI50: 4 µM
  TGI: > 100 µM
K-562 leukemia
  GI50: 4.55 µM
  TGI: > 100 µM
CCRF-CEM leukemia
  GI50: 2.15 µM
  TGI: > 100 µM
TK-10 renal
  GI50: 17.6 µM
  TGI: > 100 µM
COLO 205 colon
  GI50: 4.21 µM
  TGI: > 100 µM
OVCAR-5 ovarian
  GI50: 25.5 µM
  TGI: > 100 µM
HCT-116 colon
  GI50: 1.63 µM
  TGI: > 100 µM
A498 renal
  GI50: 15.2 µM
  TGI: > 100 µM
HL-60(TB) leukemia
  GI50: 3.02 µM
  TGI: > 100 µM
